Like-named read-outs stand apart in the source and are kept apart here.
Target: T1, AhR receptor (Homo sapiens, UniProt P35869)
T1 construct: expression of native (Human Hepatoma Huh-7) AhR receptor reporter gene cells; endogenous in cells; host or cells: Human hepatoma Huh-7 reporter cells (firefly luciferase under receptor-specific response elements)
T1 sequence (P35869 11-848): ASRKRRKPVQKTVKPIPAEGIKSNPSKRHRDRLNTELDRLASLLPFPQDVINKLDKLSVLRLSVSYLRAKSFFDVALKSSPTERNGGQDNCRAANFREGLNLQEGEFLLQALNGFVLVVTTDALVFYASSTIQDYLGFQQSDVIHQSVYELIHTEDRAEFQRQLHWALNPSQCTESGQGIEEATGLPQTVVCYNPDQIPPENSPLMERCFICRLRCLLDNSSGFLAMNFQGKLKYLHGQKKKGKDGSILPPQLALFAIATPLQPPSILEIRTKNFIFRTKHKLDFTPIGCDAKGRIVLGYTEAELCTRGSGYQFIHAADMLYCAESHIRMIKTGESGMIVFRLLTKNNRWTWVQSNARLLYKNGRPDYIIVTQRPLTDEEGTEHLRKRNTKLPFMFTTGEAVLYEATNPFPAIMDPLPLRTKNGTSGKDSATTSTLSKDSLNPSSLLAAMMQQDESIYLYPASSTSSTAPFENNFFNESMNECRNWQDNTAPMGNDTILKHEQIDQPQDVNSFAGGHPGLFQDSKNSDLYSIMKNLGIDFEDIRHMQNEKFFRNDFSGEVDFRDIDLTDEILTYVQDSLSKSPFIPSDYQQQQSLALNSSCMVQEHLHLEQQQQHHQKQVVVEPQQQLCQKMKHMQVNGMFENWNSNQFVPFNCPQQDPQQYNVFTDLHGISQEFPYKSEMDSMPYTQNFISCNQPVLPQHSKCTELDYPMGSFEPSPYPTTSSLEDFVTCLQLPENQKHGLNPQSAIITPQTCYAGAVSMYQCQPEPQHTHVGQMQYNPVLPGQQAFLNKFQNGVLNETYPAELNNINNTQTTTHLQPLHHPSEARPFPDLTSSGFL
Test: AhR agonism assay (luciferase reporter gene cells)
Format: cell-based
Experimental: Assay Materials (plasmids): expression of native (Human Hepatoma Huh-7) AhR receptor reporter gene cells, the reporter vector includes functional firefly luciferase gene linked to upstream receptor-specific genetic response elements (GRE).
The AhR agonism assay comprises the following three steps:
1. Cell implantation: a suspension of AhR receptor cells was prepared in cell recovery medium (CRM; FBS containing 10% activated carbon). Then, the prepared suspension (100 μl) was dispensed into wells of a white 96-well culture plate.
2. Right before the beginning of the experiment, Master Stocks were diluted to “2× concentration” treatment media with appropriate compound screening media (CSM: FBS containing 10% activated carbon). The test compounds were subjected to gradient dilution with CSM medium containing 0.2% DMSO, so that the final concentration of DMSO in each experimental well for each treatment group was 0.1%. […] The experimental plate was placed in an incubator at 37° C. for 24 h.
3. Fluorescence detection and analysis: after completion of the incubation, the treatment media were discarded and 100 μL/well of luciferase detection reagent was added. The Ave RLU (average relative fluorescence intensity) of each well and the coefficient of variation for each experimental group were determined. The activity of AhR receptor with various concentrations of the test compounds was quantitatively determined using a ratio of Ave RLU^Test Cmpd of various concentrations of the test compounds in the experimental group to Ave RLU^Vehicle of the blank control group, and fold activation and EC50 were determined.
For data processing method, refer to J. Biomol.

[1] = Human Hepatoma Huh-7 AhR reporter gene cells, 24 h incubation at 37° C., 0.1% DMSO, read-out: EC50

SMILES | EC50 [1] [µM] | EC50 [µM]
CC(C)c1cnc(C(=O)c2c[nH]c3ccccc23)s1 [Compound 10] | 10 to 100 | 
O=C(c1nc(-c2nnn[nH]2)cs1)c1c[nH]c2ccccc12 [Compound 35] | 1 to 10 | 
COC(=O)c1nsc(C(=O)c2c[nH]c3ccccc23)n1 [Compound 8] |  | 1 to 10
COC(=O)c1csc(Cc2c[nH]c3ccccc23)n1 [Compound 28] | 10 to 100 | 
COC(=O)c1csc(C(=O)c2cn(CO)c3ccccc23)n1 [Compound 37] |  | 0.001 to 1
O=C(c1nc(-c2nnc[nH]2)cs1)c1c[nH]c2ccccc12 [Compound 36] | 0.001 to 1 | 
Nc1nc(-c2csc(C(=O)c3c[nH]c4ccccc34)n2)cs1 [Compound 44] | 0.001 to 1 | 
COC(=O)C1CSC(C(=O)c2c[nH]c3ccc(OC)cc23)=N1 (centres unmarked) [Compound 19-1] | 0.001 to 1 | 
O=C(c1nc(-c2ccco2)cs1)c1c[nH]c2ccccc12 [Compound 40] | 0.001 to 1 | 
CO/N=C(\c1nc(C(=O)OC)cs1)c1c[nH]c2ccccc12 [Compound 25-2] | 1 to 10 | 
COC(=O)c1csc(C(=O)c2cn(COC(=O)[C@@H](N)C(C)(C)C)c3ccccc23)n1 [Compound 2-2] | 0.001 to 1 | 
COC(=O)c1csc(/C(=N\O)c2c[nH]c3ccccc23)n1 [Compound 26-2] | 1 to 10 | 
COC(=O)COCn1cc(C(=O)c2nc(C(=O)OC)cs2)c2ccccc21 [Compound 3] | 0.001 to 1 | 
CO/N=C(/c1nc(C(=O)OC)cs1)c1c[nH]c2ccccc12 [Compound 25-1] | 1 to 10 | 
COC(=O)c1csc(C(=O)c2cn(COC(=O)[C@@H](N)C(C)C)c3ccccc23)n1 [Compound 1-2] | 0.001 to 1 | 
COC(=O)c1nnc(C(=O)c2c[nH]c3ccccc23)o1 [Compound 34] | 1 to 10 | 
COCCOCCOCCOC(=O)n1cc(C(=O)c2nc(C(=O)OC)cs2)c2ccccc21 [Compound 5] | 0.001 to 1 | 
COC(=O)c1coc(-c2csc(C(=O)c3c[nH]c4ccccc34)n2)n1 [Compound 30-2] | 0.001 to 1 | 
COC(=O)c1ccc(C(=O)c2c[nH]c3ccccc23)nc1 [Compound 18] |  | 1 to 10
CC(C)c1nc(C(=O)c2c[nH]c3ccccc23)cs1 [Compound 9] |  | 0.001 to 1
COCCOCCOCCOCC(=O)OCn1cc(C(=O)c2nc(C(=O)OC)cs2)c2ccccc21 [Compound 6] | 0.001 to 1 | 
COC(=O)c1csc(-c2csc(C(=O)c3c[nH]c4ccccc34)n2)n1 [Compound 32-2] | 0.001 to 1 | 
COC(=O)c1csc(/C(=N/O)c2c[nH]c3ccccc23)n1 [Compound 26-1] | 1 to 10 | 
O=C(c1nc(-c2ccccn2)cs1)c1c[nH]c2ccccc12 [Compound 22] | 0.001 to 1 | 
COC(=O)c1csc(C(=O)c2cn(C3OC(COC(C)=O)C(OC(C)=O)C(OC(C)=O)C3OC(C)=O)c3ccccc23)n1 (centres unmarked) [Compound 38-2] | 0.001 to 1 | 
COC(=O)CNC(=O)c1csc(C(=O)c2c[nH]c3ccccc23)n1 [Compound 27] | 0.001 to 1 | 
O=C(c1nc(-c2c[nH]cn2)cs1)c1c[nH]c2ccccc12 [Compound 43-2] | 0.001 to 1 | 
COC(=O)c1csc(C(=O)c2c[nH]c3ccccc23)c1 [Compound 15] |  | 10 to 100

Second part, led by results:

EC50 [1] [µM] | SMILES | EC50 [µM]
0.001 to 1 | O=C(c1nc(-c2cnccn2)cs1)c1c[nH]c2ccccc12 [Compound 39] | 
0.001 to 1 | COC(=O)c1ccc(C(=O)c2c[nH]c3ccccc23)n1C [Compound 12] | 
0.001 to 1 | COC(=O)c1csc(C(=O)c2cn(C3OC(COC(C)=O)C(O)C(O)C3O)c3ccccc23)n1 (centres unmarked) [Compound 38-3] | 
0.001 to 1 | CC(C)[C@H](NC(=O)OC(C)(C)C)C(=O)n1cc(C(=O)c2nc(-c3nccs3)cs2)c2ccccc21 [Compound 42-1] | 
0.001 to 1 | O=C(c1nc(C2=NCCS2)cs1)c1c[nH]c2ccccc12 [Compound 31-1] | 
0.001 to 1 | O=C(c1nc(C2CC2)cs1)c1c[nH]c2ccccc12 [Compound 41] | 
0.001 to 1 | O=C(c1nc(-c2nccs2)cs1)c1c[nH]c2ccccc12 [Compound 31-2] | 
0.001 to 1 | O=C(c1nc(-c2ncco2)cs1)c1c[nH]c2ccccc12 [Compound 33-2] | 
0.001 to 1 | COC(=O)[C@@H]1COC(c2csc(C(=O)c3c[nH]c4ccccc34)n2)=N1 [Compound 30-1] | 
0.001 to 1 | COC(=O)c1csc(C(=O)c2cn(C3OC(CO)C(O)C(O)C3O)c3ccccc23)n1 (centres unmarked) [Compound 38-4] | 
0.001 to 1 | CC(C)[C@H](N)C(=O)n1cc(C(=O)c2nc(-c3nccs3)cs2)c2ccccc21 [Compound 42-2] | 
0.001 to 1 | COC(=O)c1csc(C(=O)c2cn(C(=O)[C@@H](N)C(C)C)c3ccccc23)n1 [Compound 4-2] | 
0.001 to 1 | COCCOCCOCCOCC(=O)OCC(=O)OCn1cc(C(=O)c2nc(C(=O)OC)cs2)c2ccccc21 [Compound 7] | 
0.001 to 1 | O=C(c1nc(C2=NCCO2)cs1)c1c[nH]c2ccccc12 [Compound 33-1] | 
0.001 to 1 | COC(=O)c1c[nH]c(C(=O)c2c[nH]c3ccccc23)n1 [Compound 23] | 
0.001 to 1 | COC(=O)c1csc(C(=O)c2c[nH]c3ccc(OC)cc23)n1 [Compound 19-2] | 
0.001 to 1 | N#Cc1csc(C(=O)c2c[nH]c3ccccc23)n1 [Compound 29] | 
0.001 to 1 | COC(=O)c1csc(C(=O)c2cn(C3OC(COC(C)=O)C(OC(C)=O)C(OC(C)=O)C3OC(C)=O)c3ccccc23)n1 (centres unmarked) [Compound 38-1] | 
0.001 to 1 | COC(=O)C1CSC(c2csc(C(=O)c3c[nH]c4ccccc34)n2)=N1 (centres unmarked) [Compound 32-1] | 
